For series [1], the system named is P. falciparum 3D7 strain. Nature of the series: P. falciparum growth inhibition assay (3D7 strain). It counts as cell-based, Plasmodium falciparum. Conditions: for IC50: Plasmodium falciparum, 3D7 strain. As for the experimental part:
After the synchronization process, a new culture at 1.5% parasitemia and 2% hematocrit was established and 150 μL aliquots of it were transferred to 96-well plates.
The required amounts of peptides, antimalarial compounds and dyes were added in each well at different concentrations and in triplicates. A positive growth control of untreated parasites and a negative growth control of parasites treated with a lethal dose of chloroquine (1 μM) were also included.
Parasites were grown for 48 h, a complete replication cycle, in standard culturing conditions (5% O2, 5% CO2, and 90% N2 at 37° C.). After the incubation period, 3 μL of culture from each well were mixed with 197 μL of PBS containing 0.1 μM Syto 11 (Thermo Fisher Scientific Inc), to obtain a final concentration of ca. 1-10×10^6 cells/ml.
Parasitemia was assessed by flow cytometry using a LSRFortessa flow cytometer (BD Biosciences, San Jose, CA, USA) set up with the 4 lasers, 20 parameters standard configuration. The single-cell population was selected on a forward-side scatter scattergram.
Growth inhibition was calculated taking as reference values both the growth rate of the untreated culture and the growth rate of the culture treated with chloroquine.

The nature of series [2]: Cytotoxicity (CC50) and in vitro therapeutic index. It counts as cell-based, human. Conditions: human umbilical vein endothelial cells (HUVEC); human umbilical vein endothelial cell cultures.
For series [3], the system named is human umbilical vein endothelial cell cultures. Nature of the series: Cytotoxicity (CC50) and in vitro therapeutic index. The series is classed as cell-based.
The subject of series [4] is P. falciparum ring or trophozoite stage cultures. In words: Stage of growth inhibition analysis. It counts as cell-based, Plasmodium falciparum. As to conditions: added to ring stages at its IC80. As for the experimental part:
For stage of growth inhibition analysis, P. falciparum cultures were synchronized at ring or trophozoite stages by repeated treatment with 5% sorbitol or 70% Percoll, respectively. Half of each culture remained untreated and the other half was treated with the IC80 of AID-X-2020. At different time points, culture samples were stained with Giemsa and the number of rings, early and mature trophozoites and schizonts was counted by microscopic examination of at least 100 pRBCs for each sample. Pictures were taken with a Nikon Eclipse 50i microscope equipped with a DS-Fi1 camera (Nikon).

In series [5] the target is T1, preformed Aβ40 fibrils (Homo sapiens, UniProt P05067).
T1 construct: Amyloid-β peptide fragment 1-40 (Aβ40); purchased GenScript
T1 sequence (P05067 672-711 limits assumed, species assumed): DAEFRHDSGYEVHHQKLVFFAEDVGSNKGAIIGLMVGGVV
In words: Disaggregation of preformed Aβ40 fibrils. As to conditions: 24 h after fibril formation, ThT and TEM. The series is classed as biochemical. As for the experimental part: To test the effect of AID-X-2020 on already formed amyloid fibrils, Aβ40 DMSO solutions were diluted to 25 μM in PBS and incubated as above in order to allow fibril formation. Then, AID-X-2020 was added at different concentrations (0.1 μM AID-X-2020, 1 μM AID-X-2020 and 10 μM AID-X2020) and the mixture was incubated in the same conditions for another 24 h. The final samples always contained less than 5% DMSO to avoid interference of this solvent on Aβ40 amyloid fibril formation. Finally, ThT treatment and TEM analysis was performed as described in section 3.1 of EXAMPLE 3. The analysis of aggregation inhibition and disaggregation performed with aggregative peptides present in P. falciparum proteins were conducted in the same way.

Series [6] deals with P. falciparum NF54-gexp02-Tom strain gametocytes. Nature of the series: microbe, parasite or virus in culture. It counts as cell-based. Conditions: Plasmodium falciparum, NF54, 48 h. As for the experimental part:
Cultures of the P. falciparum NF54-gexp02-Tom strain (developed and authenticated by Portugaliza, H. P. et al., 2019 and kindly provided by Prof. Alfred Cortes), were maintained in standard conditions in RPMI medium supplemented with 0.5% Albumax II and 2 mM choline, synchronized in ring stages with sorbitol lysis, and diluted to 2% parasitemia. To trigger sexual conversion, choline was removed from the medium and cultures were maintained in the same conditions for 48 h after synchronization (cycle 0). In the next cycle (cycle 1), parasites were treated with 50 mM N-acetylglucosamine (GlcNac) in order to kill asexual parasites, and maintained in RPMI supplemented with 10% human serum. Medium was refreshed daily and GlcNac was kept during 4 days.
Controls of untreated parasites as well as of parasites treated with a lethal dose of chloroquine were prepared. Gametocytemia was monitored daily by light microscopy until the majority of parasites (˜90%) could be identified as stage V gametocytes. At that point, Giemsa smears of each well were prepared and mature gametocytes were manually counted (10,000 cells were counted for each replica by two investigators blinded to group assignment). […] Afterwards, the culture was treated for 48 h with the drugs and the gametocytemia determined as above.

Each structure is given as a SMILES string. Read-outs that look alike come from different tables or passages of the source.

For the compound `CCN(CC)c1ccc(/C=C/c2cc[n+](CCCCCCCCCC[n+]3ccc(/C=C/c4ccc(N(CC)CC)cc4)c(C)c3)cc2C)cc1` [AID-X-2020, 1,1′-(decane-1,10-diyl)bis{4-[(E)-4-(diethylamino)styryl]-3-methylpyridin-1-ium} dibromide], the “in vitro IC10” value in series [1] (P. falciparum cultures) amounted to 27 nM. In addition, the IC50 (in general, the concentration that inhibits the measured activity by half) in series [1] (48 h, Table 2, read-out: IC50 in 3D7 strain (μM) ± SEM) was 0.09 ± 0.02 µM; in series [1] (Example 8, read-out: IC50 in 3D7 strain) it was 0.09 µM; in series [1] (read-out: IC50 in P. falciparum in vitro cultures) it was 0.09 ± 0.002 µM; in series [6] (read-out: IC50 on early gametocytes), 95 ± 3 nM; in series [6] (read-out: IC50 on mature stage V (late) gametocytes) it was 103 ± 3 nM. In addition, in series [2], half-maximal cytotoxicity (CC50) was put at 3400 nM. Moreover, the “Therapeutic index in vitro” value in series [3] (50% cytotoxic concentration (CC50)/IC50 in 3D7 strain) is 23.3. Besides, the “therapeutic index (CC50/IC50)” value in series [3] (HUVEC CC50, text value) is recorded as 37.8. Also, the “stage of growth arrest” value in series [4] is “arrested the life cycle of the pathogen at trophozoite stage”. Further, the “concentration disassembling preformed Aβ40 fibrils” value in series [5] is given as over 90 nM.

The record behind these values is patent US20240415825A1, “COMPOUNDS FOR THE TREATMENT OF MALARIA” (FUNDACIÓ INSTITUT DE BIOENGINYERIA DE CATALUNYA, priority 2021, published 2024).
